From US10695347B2, “Pyrimidine derivative and use thereof” (Hubei Bio-Pharmaceutical Industrial Technological Institute …, priority 2015, dated 2020)
Read-outs that look alike come from different tables or passages of the source.

Assays:
[1] = target: ALK (Homo sapiens (Human), UniProt Q9UM73); assay: Inhibition of ALK kinase activity (Caliper mobility shift); assay type: biochemical
Method: (§1) Inhibition of Compound I Against ALK Kinase Activity
(§2) • I. Preparation of 1× kinase buffer and stop buffer
(§3) 1) 1× Kinase Buffer • 50 mM HEPES. pH 7.5 • 0.0015% Brij-35 • 10 mM MgCl2 • 2 mM DTT • 2) stop buffer • 100 mM HEPES, pH 7.5 • 0.015% Brij-35 • 0.2% Coating Reagent #3 • 50 mM EDTA
(§4) 2. Prepare a Compound Solution to be Tested • Step 2.1 Dilute the compound to 50× of the final desired highest inhibitor concentration in reaction by 100% DMSO. Transfer 100 μl of this compound dilution to a well in a 96-well plate. For example, if desired highest inhibitor concentration is 1 μM, then prepare 50 μM of compound DMSO solution in this step.
(§5) Step 2.2 Further dilute said compound dilution by 3-fold in series, thus obtain 10 concentrations.
(§6) Step 2.3 Add 100 μl of 100% DMSO to two empty wells for no compound control and no enzyme control in the same 96-well plate. Mark the plate as source plate.
(§7) Step 2.4 Prepare an intermediate plate
(§8) Transfer 10 μl of each compound from the source plate to a new 96-well plate as the intermediate plate.
(§9) Add 90 μl of 1× kinase buffer to each well of the intermediate plate. Mix the compounds in the intermediate plate for 10 min on a shaker.
(§10) Transfer 5 μl of each well from the 96-well intermediate plate to a 384-well plate in duplicate. For example, A1 of the 96-well plate is transferred to A1 and A2 of the 384-well plate. A2 of the 96-well plate is transferred to A3 and A4 of the 384-well plate, and so on.
(§11) 4.1 Prepare a 2.5× kinase solution
(§12) Add kinase in 1× kinase base buffer, thus obtain the 2.5× kinase solution.
(§13) 4.2 Prepare a 2.5× peptide solution
(§14) 4.3 In each well of the assay plate obtained in step 3, there was 5 μL of the compound in 10% DMSO.
(§15) 4.4 Transfer the 2.5× enzyme solution to the assay plate.
(§16) 4.5 Incubate at room temperature for 10 min.
(§17) 4.6 Transfer the 2.5× peptide solution to the assay plate.
(§18) 4.7 Kinase reaction and stop
(§19) Incubate at 28° C. for 20 min.
(§20) Add 25 μl of stop buffer to stop reaction.
(§21) Conversion rate of the kinase was read via the Caliper.
(§22) 6.1 Copy conversion data from Caliper program.
(§23) 6.2 Convert conversion values to inhibition values with the following formula: Percent inhibition=(max−conversion)/(max−min)*100
(§24) where “max” stands for DMSO control; and “min” stands for low control.
(§25) 6.3 Fit the data in XLfit excel add-in version 4.3.1 and obtain IC50 values according to the following formula: Y=Bottom+(Top−Bottom)/[…].

[2] = target: ALK L1196M (Homo sapiens (Human), UniProt Q9UM73, L1196M); assay: Inhibition of ALK L1196M kinase activity (Caliper mobility shift); assay type: biochemical
Method: as §1, §2, §3, §4, §5, §6, §7, §8, §9, §10, §11, §12, §13, §14, §15, §16, §17, §18, §19, §20, §21, §22, §23, §24, §25

[3] = tested on: Karpas299 cells; assay: Suppression of Karpas299 cell proliferation (CellTiter-Glo); assay type: cell-based; settings: 3 days incubation, read-out: Inhibition activity on Karpas299 cells IC50
Method: (§26) As the amount of ATP can indicate the number of living cells directly, the living cells in culture are able to be quantified by determining the ATP level. In our experiment, we use a living-cell testing kit to quantify the living cells, which utilizes UltraGlow luciferase to generate a stable glow signal in the presence of ATP which is produced by metabolism of living cells, such as respiration. Specifically, a reagent CellTiter-Glo™ was added into cell culture media, and then the luminescent intensity was determined to measure proliferation of cells, as the luminescent intensity is in direct proportion to the ATP level which correlates positively to the number of living cells. The test plate was tested with the Envision (PE).
Cell media: RPMI-1640 medium, fetal calf serum (FCS), antibiotics (Penicillin-Streptomycin)
Assay reagent: Cell Viability Assay Kit CellTiter-Glo
(§27) Others: a 96-well plate, a 384-well plate, DMSO
(§28) Step 3.1 Culturing test cells
Karpas 299 cells were plated into a black 384-well plate, with 2500 cells in 45 μl cell suspension per well. The plate was placed in a carbon dioxide incubator overnight.
(§29) Step 3.2 Preparation of the compounds to be tested
Each compound to be tested was dissolved in DMSO at 10 mM as the stock solution, which was left in a nitrogen-gas tank for storage.
After dilution of 10 μL stock solution (10 mM) into 2.5 mM as a starting working solution, 10 concentrations of the working solutions from 5 μM to 0.25 nM were obtained in duplicate by further dilution in 3-fold series with ECHO.
Step 3.3 Mixing the compound with the test cells
To each well of a new 96-well plate were added 49 μl medium and 1 μl of the compounds to be tested at individual working concentrations (10 concentrations in total). After oscillation,
5 μl of mixture in each well of the 96-well plate was transferred into corresponding wells in the 384-well plate in the step 3.1. The 384-well plate was incubated in the carbon dioxide incubator for 3 days.
To each well of the 384-well plate was added […] reagent Promega CellTiter-Glo. and incubated at room temperature for 10 minutes to stabilize the luminescence signal. The results were read with the PerkinElmer Envision Multi-mode Plate Reader.

[4] = tested on: Ba/F3 EML4-ALK cells; assay: Suppression of Ba/F3 EML4-ALK cell proliferation (CellTiter-Glo); assay type: cell-based; settings: 3 days incubation
From the text: Cell media: RPMI-1640 medium, fetal calf serum (FCS), antibiotics (Penicillin-Streptomycin), IL-3, puromycin
Cell line: Ba/F3 EML4-ALK
Assay reagent: Cell Viability Assay Kit Celliter-Glo
as §27
as §26, with “in medium” for “in culture”, “a cell viability assay” for “a living-cell testing”, “was assayed by” for “was tested with”
as §28
Ba/F3 EML4-ALK cells were planted into a 384-well plate, with almost 300 cells per well. The plate was placed in a carbon dioxide incubator overnight.
as §29
10 concentrations of the working solutions were obtained in duplicate by dilution in 3-fold series with BRAVO.
Step 3.3 Mixing the compound to be tested with the test cells
The compounds to be tested at individual working concentrations were transferred into corresponding wells in the 384-well plate in the step 3.1, with 5 μM as the initial working concentration, and then the 384-well plate was incubated in the carbon dioxide incubator for 3 days.
To each well of the 384-well plate was added the reagent Promega CellTiter-Glo, and incubated at room temperature for 10 minutes to stabilize the luminescence signal. The results were read by the PerkinElmer Envision Multi-mode Plate Reader.

Sequence of ALK L1196M (Q9UM73 19-1620 L1196M): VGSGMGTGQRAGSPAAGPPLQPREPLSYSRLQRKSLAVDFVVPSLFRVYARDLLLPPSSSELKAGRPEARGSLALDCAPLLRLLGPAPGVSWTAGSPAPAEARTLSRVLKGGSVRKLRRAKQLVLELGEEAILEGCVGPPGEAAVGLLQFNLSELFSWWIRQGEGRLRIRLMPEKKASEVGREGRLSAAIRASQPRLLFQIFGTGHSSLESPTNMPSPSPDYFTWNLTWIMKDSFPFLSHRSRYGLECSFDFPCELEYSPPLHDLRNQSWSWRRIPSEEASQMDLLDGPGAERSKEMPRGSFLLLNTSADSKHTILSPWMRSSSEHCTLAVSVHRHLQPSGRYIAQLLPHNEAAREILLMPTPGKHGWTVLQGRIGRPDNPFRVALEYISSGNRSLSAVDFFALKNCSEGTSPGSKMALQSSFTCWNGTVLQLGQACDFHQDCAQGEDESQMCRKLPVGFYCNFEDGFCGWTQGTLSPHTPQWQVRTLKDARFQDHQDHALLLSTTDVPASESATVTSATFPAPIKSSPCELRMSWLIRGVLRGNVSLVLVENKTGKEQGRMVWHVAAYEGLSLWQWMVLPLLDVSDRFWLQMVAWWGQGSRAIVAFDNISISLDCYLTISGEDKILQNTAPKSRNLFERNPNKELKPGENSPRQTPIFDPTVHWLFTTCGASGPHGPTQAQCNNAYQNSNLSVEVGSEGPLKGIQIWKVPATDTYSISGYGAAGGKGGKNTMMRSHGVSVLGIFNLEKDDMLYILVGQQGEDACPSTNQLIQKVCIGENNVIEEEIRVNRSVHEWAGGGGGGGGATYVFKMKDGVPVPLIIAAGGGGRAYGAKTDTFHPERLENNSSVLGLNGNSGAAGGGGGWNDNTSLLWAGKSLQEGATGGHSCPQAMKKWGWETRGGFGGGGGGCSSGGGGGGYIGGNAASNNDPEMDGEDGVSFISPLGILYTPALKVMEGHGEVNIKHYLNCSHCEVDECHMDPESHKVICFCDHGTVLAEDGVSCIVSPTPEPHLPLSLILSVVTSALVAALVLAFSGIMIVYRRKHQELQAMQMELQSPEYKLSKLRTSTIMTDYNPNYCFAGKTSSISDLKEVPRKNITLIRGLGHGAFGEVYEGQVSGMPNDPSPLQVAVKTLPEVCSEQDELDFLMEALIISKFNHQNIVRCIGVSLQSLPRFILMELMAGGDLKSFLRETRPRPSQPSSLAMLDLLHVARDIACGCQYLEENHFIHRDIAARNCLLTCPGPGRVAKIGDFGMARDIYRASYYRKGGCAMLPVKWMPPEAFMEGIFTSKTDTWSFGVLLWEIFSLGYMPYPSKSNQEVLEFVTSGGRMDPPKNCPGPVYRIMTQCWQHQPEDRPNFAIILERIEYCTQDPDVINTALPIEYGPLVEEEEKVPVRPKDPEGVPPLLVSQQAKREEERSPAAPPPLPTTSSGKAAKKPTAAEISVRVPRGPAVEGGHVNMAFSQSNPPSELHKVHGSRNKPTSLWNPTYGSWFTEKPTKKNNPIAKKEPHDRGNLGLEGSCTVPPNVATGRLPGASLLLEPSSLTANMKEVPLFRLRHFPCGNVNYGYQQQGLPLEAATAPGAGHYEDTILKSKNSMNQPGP
Sequence of ALK (Q9UM73 19-1620): as the sequence (Q9UM73 19-1620 L1196M) above, with M1178L counted along it

Compound	IC50 [1] [µM]	IC50 [2] [µM]	IC50 [3] [µM]	IC50 [4] [µM]	IC50 ([3]; Homo sapiens, KARPAS-299, 72 h) [µM]	IC50 ([4]; Ba/F3 EML4-ALK, 72 h) [µM]
5-chloro-N^2-(2-isopropoxy-5-methyl-4-(1,2,3,6-tetrahydropiperidin-4-yl) phenyl)-N^4-(2-isopropylsulfonyl) pyridin-3-yl) pyrimidine-2,4-diamine [Compound I-90]	0.001 to 0.01	0.001 to 0.01	< 0.05	< 0.02	–	–
COc1cc(N2CCOCC2)ccc1Nc1ncc(Cl)c(Nc2ccsc2S(=O)(=O)C(C)C)n1 [Compound I-1]	–	–	–	–	< 0.05	< 0.02
COc1cc(N2CCN(C)CC2)ccc1Nc1ncc(Cl)c(Nc2ccsc2S(=O)(=O)C(C)C)n1 [Compound I-2]	–	–	–	–	< 0.05	< 0.02
COc1cc(N2CCC(N(C)C)CC2)ccc1Nc1ncc(Cl)c(Nc2ccsc2S(=O)(=O)C(C)C)n1 [Compound I-3]	–	–	–	–	< 0.05	< 0.02
COc1cc(N2CCN(C)CC2)ccc1Nc1ncc(Cl)c(Nc2cccnc2S(=O)(=O)C(C)C)n1 [Compound I-5]	0.001 to 0.01	0.001 to 0.01	–	–	< 0.05	< 0.02
COc1cc(N2CCC(N(C)C)CC2)ccc1Nc1ncc(Cl)c(Nc2cccnc2S(=O)(=O)C(C)C)n1 [Compound I-6]	0.001 to 0.01	0.001 to 0.01	–	–	< 0.05	< 0.02
COc1cc(N2CCC(N3CCOCC3)CC2)ccc1Nc1ncc(Cl)c(Nc2cccnc2S(=O)(=O)C(C)C)n1 [Compound I-7]	0.001 to 0.01	0.001 to 0.01	–	–	< 0.05	< 0.02
COc1cc(N2CCC(N3CCOCC3)CC2)ccc1Nc1ncc(Cl)c(Nc2ccsc2S(=O)(=O)C(C)C)n1 [Compound I-8]	–	–	–	–	< 0.05	< 0.02
COc1cc(N2CCC(O)CC2)ccc1Nc1ncc(Cl)c(Nc2cccnc2S(=O)(=O)C(C)C)n1 [Compound I-9]	0.001 to 0.01	0.001 to 0.01	–	–	< 0.05	0.02 to 0.1
COc1cc(N2CCC(N3CCN(C)CC3)CC2)ccc1Nc1ncc(Cl)c(Nc2cccnc2S(=O)(=O)C(C)C)n1 [Compound I-10]	0.001 to 0.01	0.001 to 0.01	–	–	< 0.05	< 0.02
COc1cc(N2CCC(N3CCN(C)CC3)CC2)ccc1Nc1ncc(Cl)c(Nc2ccsc2S(=O)(=O)C(C)C)n1 [Compound I-11]	0.001 to 0.01	0.001 to 0.01	–	–	< 0.05	< 0.02
COc1cc(N2CCC(N3CC(C)OC(C)C3)CC2)ccc1Nc1ncc(Cl)c(Nc2cccnc2S(=O)(=O)C(C)C)n1 (centres unmarked) [Compound I-12]	0.001 to 0.01	0.001 to 0.01	–	–	0.05 to 0.1	< 0.02
COc1cc(N2CCN(C)CC2)ccc1Nc1ncc(Cl)c(Nc2ccccc2S(=O)(=O)C(C)C)n1 [Compound I-13]	–	–	–	–	< 0.05	< 0.02
COc1cc(N2CCC(N(C)C)CC2)ccc1Nc1ncc(Cl)c(Nc2ccccc2S(=O)(=O)C(C)C)n1 [Compound I-14]	–	–	–	–	< 0.05	< 0.02
COc1cc(N2CCC(N3CCC(N(C)C)CC3)CC2)ccc1Nc1ncc(Cl)c(Nc2ccccc2S(=O)(=O)C(C)C)n1 [Compound I-15]	–	–	–	–	0.05 to 0.1	< 0.02
COc1cc(N2CCC(O)CC2)ccc1Nc1ncc(Cl)c(Nc2ccsc2S(=O)(=O)C(C)C)n1 [Compound I-16]	–	–	–	–	< 0.05	< 0.02
COc1cc(N2CCC(N3CC(C)OC(C)C3)CC2)ccc1Nc1ncc(Cl)c(Nc2ccccc2S(=O)(=O)C(C)C)n1 (centres unmarked) [Compound I-17]	0.001 to 0.01	0.001 to 0.01	–	–	< 0.05	< 0.02
COc1cc(N2CCC(N3CCC(N(C)C)CC3)CC2)ccc1Nc1ncc(Cl)c(Nc2ccsc2S(=O)(=O)C(C)C)n1 [Compound I-18]	0.001 to 0.01	0.001 to 0.01	–	–	< 0.05	< 0.02
COc1cc(N2CCN(C(C)C)CC2)ccc1Nc1ncc(Cl)c(Nc2cccnc2S(=O)(=O)C(C)C)n1 [Compound I-23]	0.001 to 0.01	0.001 to 0.01	–	–	< 0.05	< 0.02
COc1cc(C2=CCN(C(C)C)CC2)c(C)cc1Nc1ncc(Cl)c(Nc2cccnc2S(=O)(=O)C(C)C)n1 [Compound I-80, 5-chloro-N^2-(4-(1-isopropyl-1,2,3,6-tetrahydropyridin-4-yl)-2-methoxy-5-methylphenyl)-N^4-(2-(isopropylsulfonyl)pyridin-3-yl) pyrimidine-2,4-diamine]	0.001 to 0.01	0.001 to 0.01	–	–	< 0.05	0.02 to 0.1
COc1cc(C2=CCNCC2)c(C)cc1Nc1ncc(Cl)c(Nc2cccnc2S(=O)(=O)C(C)C)n1 [Compound I-89]	0.001 to 0.01	–	–	–	0.05 to 0.1	< 0.02
CC(C)S(=O)(=O)c1ccccc1Nc1nc(Nc2ccc(N3CCC(N(C)C)CC3)cc2OC(F)F)ncc1Cl [Compound I-95]	–	–	–	–	< 0.05	0.02 to 0.1
COc1cc(CN2CCC(N(C)C)CC2)ccc1Nc1ncc(OC(F)F)c(Nc2ccccc2S(=O)(=O)C(C)C)n1 [Compound I-103]	0.001 to 0.01	–	–	–	0.05 to 0.1	< 0.02
COc1cc(CN2CCC(N(C)C)CC2)ccc1Nc1ncc(Cl)c(Nc2cccnc2S(=O)(=O)C(C)C)n1 [Compound I-107]	–	0.001 to 0.01	–	–	0.05 to 0.1	0.02 to 0.1
CC(C)S(=O)(=O)c1ccccc1Nc1nc(Nc2ccc(N3CCC(N(C)C)CC3)cc2OC(F)F)ncc1OC(F)F [Compound I-114]	–	–	–	–	< 0.05	< 0.02
